The record followed here is paper PMC9403976, “Elucidating the path to Plasmodium prolyl-tRNA synthetase inhibitors that overcome halofuginone resistance” (Nature Communications, 2022).

SMILES strings stand for the structures. Values joined by “and” are separate entries in the source; they are usually repeats but may differ in a detail not shown here. Equal entries are not always repeated. Where two headings read alike, the source gives them in different places.

Assay [1] concerns P. falciparum Dd2-2D4. Briefly: P. falciparum asexual blood stage (ABS) growth assay, SYBR Green, 72 h, wild-type parasites. The following applies: Plasmodium falciparum, DD2; SI Fig 16b; values on -log scale; read-out: ABS - Dd2-2D4 (converted). The format is cell-based, Plasmodium falciparum.
For assay [2], the target named is HsProRS (Homo sapiens, UniProt P07814). Briefly: TR-FRET ligand displacement assay with tracer MAT379 (CoraFluor-1-Halo and anti-His6 antibody formats). The format is binding. Also noted: made in house; host or cells: E. coli SoluBL-21. In general terms: In TR-FRET formats the signal depends on donor and acceptor labels being close together.
Assay [3] deals with T1, PfcProRS (Plasmodium falciparum, UniProt Q8I5R7).
T1 construct: made in house; host or cells: E. coli SoluBL-21
The format is binding. The note with it: for Normalized response, dose-response replicates (SI Fig 14): replicates 1-3.

T1 sequence (Q8I5R7 249-746): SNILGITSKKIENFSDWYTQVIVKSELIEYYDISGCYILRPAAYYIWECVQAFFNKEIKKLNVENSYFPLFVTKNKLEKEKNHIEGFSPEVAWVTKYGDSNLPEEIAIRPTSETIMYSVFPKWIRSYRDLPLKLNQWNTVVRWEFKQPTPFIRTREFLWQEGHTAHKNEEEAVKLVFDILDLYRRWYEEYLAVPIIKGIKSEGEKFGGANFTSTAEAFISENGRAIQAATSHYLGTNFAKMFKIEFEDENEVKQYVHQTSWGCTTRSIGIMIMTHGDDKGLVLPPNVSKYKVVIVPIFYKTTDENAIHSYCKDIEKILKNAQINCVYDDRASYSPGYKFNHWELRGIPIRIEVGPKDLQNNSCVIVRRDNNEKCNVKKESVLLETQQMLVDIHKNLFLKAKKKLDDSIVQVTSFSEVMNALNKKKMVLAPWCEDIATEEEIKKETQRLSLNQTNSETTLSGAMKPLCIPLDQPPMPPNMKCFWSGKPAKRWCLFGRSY
Sequence of HsProRS (P07814 996-1512): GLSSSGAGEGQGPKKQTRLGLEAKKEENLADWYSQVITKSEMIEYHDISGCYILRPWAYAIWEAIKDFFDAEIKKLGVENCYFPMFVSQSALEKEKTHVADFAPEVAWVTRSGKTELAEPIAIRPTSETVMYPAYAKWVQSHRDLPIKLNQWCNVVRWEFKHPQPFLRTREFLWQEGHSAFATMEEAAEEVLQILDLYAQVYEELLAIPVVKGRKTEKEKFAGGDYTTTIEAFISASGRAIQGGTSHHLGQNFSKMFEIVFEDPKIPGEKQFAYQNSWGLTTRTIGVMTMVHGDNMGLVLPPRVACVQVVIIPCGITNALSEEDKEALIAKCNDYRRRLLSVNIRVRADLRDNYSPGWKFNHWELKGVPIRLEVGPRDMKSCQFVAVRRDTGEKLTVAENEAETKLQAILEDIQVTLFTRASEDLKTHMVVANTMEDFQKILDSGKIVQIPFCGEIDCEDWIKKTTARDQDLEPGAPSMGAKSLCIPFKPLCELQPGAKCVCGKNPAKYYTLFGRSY

As to `CC(C)(C)OC(=O)NCCCCCC(=O)NCC1CCN(C(=O)Nc2nccnc2C(=O)NC2Cc3ccccc3C2)CC1` [compound 43], the EC50 in assay [1] was 3330 nM. Also, the dissociation constant Kd in assay [2] (HsProRS (KD [nM]) + 100 μM proline mean, + 100 μM proline) came out at 2280 nM; in assay [2] (HsProRS (KD [nM]) mean, no added proline/ATP (-)) it was 611 nM. Also, the “Normalized response, dose-response replicates (SI Fig 14)” value (“Normalized response” below) in assay [3] (Log[inhibitor] (M) -5.000) was 3.94E-01 and 2.57E-01 and 2.74E-01; in assay [3] (Log[inhibitor] (M) -5.301), 4.70E-01 and 4.27E-01 and 4.95E-01; in assay [3] (Log[inhibitor] (M) -5.601), 6.21E-01 and 6.23E-01 and 5.88E-01; in assay [3] (Log[inhibitor] (M) -5.904) it was 7.25E-01 and 7.36E-01 and 7.34E-01; in assay [3] (Log[inhibitor] (M) -6.208), 8.39E-01 and 7.98E-01 and 7.48E-01; in assay [3] (Log[inhibitor] (M) -6.509), 9.01E-01 and 9.26E-01 and 9.21E-01. For the same molecule, the “Normalized response” value in assay [3] (Log[inhibitor] (M) -6.796) was 8.44E-01 and 9.34E-01 and 8.61E-01; in assay [3] (Log[inhibitor] (M) -7.108), 8.07E-01 and 9.41E-01 and 7.86E-01; in assay [3] (Log[inhibitor] (M) -7.409) it was 8.06E-01 and 8.12E-01 and 9.38E-01; in assay [3] (Log[inhibitor] (M) -7.710), 9.31E-01 and 8.84E-01 and 7.70E-01; in assay [3] (Log[inhibitor] (M) -8.000), 9.59E-01 and 9.87E-01 and 9.57E-01; in assay [3] (Log[inhibitor] (M) -8.301), 1.01E+00 and 8.79E-01 and 9.74E-01. Besides, the “Normalized response” value is 9.04E-01 and 9.28E-01 and 9.93E-01 in assay [3] (Log[inhibitor] (M) -8.602); 8.86E-01 and 8.79E-01 and 9.68E-01 in assay [3] (Log[inhibitor] (M) -9.000); 8.43E-01 and 8.23E-01 and 8.26E-01 in assay [3] (Log[inhibitor] (M) -9.301). The “PfcProRS -- best Kd” value in assay [3] (SI Fig 16a, values on -log scale) stood at 6.495.

In general, Kd refers to the equilibrium constant for the complex coming apart.
